We go through 2 compounds from patent publication US20140357688A1, “METHOD FOR INHIBITING EZH2 EXPRESSION IN BREAST CANCER CELLS” (Yung Shin Pharm. Ind. Co., Ltd., priority 2013, published 2014).

For one series, the system named is ERK. The series can be described thus: Western blot of ERK phosphorylation in MDA-MB-468 cells. In kind it is cell-based, human. The settings on record: 3 μM YC-1 for 6 h in the presence of inhibitor. The protocol: (A) Cells were pretreated with KT5720 (3 μM), KT5823 (3 μM), NS2028 (30 μM), or ODQ (30 μM) and then stimulated with YC-1 (3 μM) for 6 h. Cells were collected for measurement of protein expression (left) or cell viability (middle). After 3 days of PKA knockdown, cells were induced with 3 μM YC-1 for 4 h. Cells were harvested and analyzed using western blotting (right). The levels of protein expression were quantitated and shown under blots. […] Cells were collected and analyzed protein expression (left) and cells viability (middle). p44/42 MAPK knockdown cells were treated with 3 μM YC-1 for 4 h and then detected protein expression (left). (C) Cells were treated with 3 μM YC-1 for indicated time. Cells were harvested for detection of protein phosphorylated activation. […] Six hours later, cells were harvested for EZH2 ubiquitination assay. (E) Cells were induced by 3 μM YC-1 for 6 h in the presence of PD98059 or KT5720. Cells were collected for the determination of ERK phosphorylation. Cells were lysed in PBS containing proteinase inhibitor and phosphatase inhibitors and sonication. Protein concentration was measured using the Bio-Rad protein assay kit (Bio-Rad Laboratories, Hercules, Calif., USA). […] The band intensities were analyzed and quantified by the Multi Gauge software (Fuji Photo Film).

Series [1] concerns EZH2. Put plainly: Western blot of EZH2 protein expression in MDA-MB-468 cells. The series is classed as cell-based, human. Particulars: inhibitor pretreatment, then 3 μM YC-1 for 6 h. The protocol:
Cells were harvested and performed with western blotting analysis. […] The levels of protein expression were quantitated and shown under blots. (C) Cells were transfected with EZH2 shRNA for 0, 1, 2, 3, and 4 days and collected for determination of cell viability (left) and protein expression (right). (D)(E) After 4 days of EZH2 knockdown, cells were incubated with 3 μM YC-1 for 4 h and detected cell viability (D) and protein contents (E). (F) Tumor specimens were isolated and protein was extracted for western blot analysis.
Cells were lysed in PBS containing proteinase inhibitor and phosphatase inhibitors and sonication. Protein concentration was measured using the Bio-Rad protein assay kit (Bio-Rad Laboratories, Hercules, Calif., USA). Lysate protein was separated by electrophoresis of SDS-PAGE and transferred to Immobilon P membrane (EMD Millipore). The membranes were incubated with appropriate primary antibodies and horseradish peroxidase-conjugated secondary antibodies (EMD Millipore). The signaling was visualized using Chemiluminescence substrate kit (EMD Millipore) and collected by the Luminesence image analyzer, LAS4000 (Fuji Photo Film Co., Tokyo, Japan). The band intensities were analyzed and quantified by the Multi Gauge software (Fuji Photo Film).

Another series relates to MDA-MB-468. The series can be described thus: MTT cell viability assay. In kind it is cell-based, human. The settings on record: inhibitor pretreatment, then 3 μM YC-1 for 6 h. The protocol: (A) Cells were treated with indicated concentration of YC-1 for 6, 24, and 48 h. Cell viability was determined by MTT method. (B) MDA-MB-468 cells were treated with 3 μM YC-1 for 0, 6, and 12 h, and then stained with fluorescence diacetate (FDA) and propidium iodide (PI). Cell morphology was assessed by fluorescence microscopy with magnification ×20 (upper 3 rows) or ×40 (lowest row). (C) MDA-MB-468 cells were treated with 3 μM YC-1 for 24 h, cells were lysed and subjected to western blot analysis described in Materials and Methods. β-actin is a loading control. Blots were representative of results from three independent experiments. (D) Cells were treated with vehicle (DMSO, as control) or 3 μM YC-1 for 6 h. The cell cycles were analyzed by flow cytometry. (E) Cells were treated with indicated concentration of YC-1 and then performed with clonogenic assay.
Human breast cancer cells, MDA-MB-468, MDA-MB-157, MDA-MB-231, MDA-MB-453, and Hs578T, and immortalized mammary epithelial cell lines, 184A1 and MCF-10A, were obtained from American Type Culture Collection (Manassas, Va., USA). MDA-MB-468, MDA-MB-157, MDA-MB-231, and MDA-MB-453 were cultured in DMEM/F12 medium supplemented with 10% FBS, 100 U/ml penicillin, and 100 μg/ml streptomycin. Hs578T was cultured in RPMI 1640 medium containing 10% FBS, 2 mM L-glutamine, 100 U/ml penicillin, and 100 μg/ml streptomycin. 184A1 and MCF-10A were cultured in DMEM/F12 medium supplemented with 5% horse serum, 0.5 μg/ml hydrocortisone, 10 μg/ml insulin, 20 ng/ml epidermal growth factor, 0.1 μg/ml cholera enterotoxin, 2 mM L-glutamine, 100 U/ml penicillin, and 100 μg/ml streptomycin. All cells were maintained in a humidified incubator containing 5% CO2. For hypoxia treatment, cells were incubated in a chamber flushed with 1% 02, 5% CO2, and 94% N2 at 37° C.
Cell viability was measured by 3-(4,5-Dimethyl-2-thiazolyl)2,5-diphenyl-2H-tetrazolium bromide (MTT) assay.

For series [2], the system named is EZH2. The series can be described thus: EZH2 ubiquitination assay. In kind it is cell-based, human. Particulars: inhibitor pretreatment, then 3 μM YC-1. How it is done: (A) Cells were pretreated with cyclohexamide (30 μM) for 1 h and followed by induction with vehicle (DMSO) or YC-1 (3 μM) for indicated time. Cells were harvested for detection of protein expression. (B)(C) Cells were incubated with 3 μM YC-1 for 6 h in the presence of vehicle, 3 μM MG-132 or 30 μM NH4Cl. Cells were harvested for detection of protein expression (B) or cell viability assay (C). The levels of protein expression were quantitated and shown under blots. (D) After treatment of 3 μM YC-1 for indicated time, cells were harvested and lysed for immunoprecipitation and western blot analysis described in Materials and Methods.
Cells were lysed with MLB buffer (25 mM HEPES, pH 7.5, 150 mM NaCl, 1% Igepal CA-630, 10 mM MgCl2, 1 mM EDTA, 2% glycerol, 1 mM Na3VO4, 1 mM NaF, 1 mM PMSF, 10 μg/ml of leupeptin, aprotinin, and pepstatin A). After sonication, cell lysates were centrifugated at 12,000×g for 10 min at 4° C. Supernatants were incubated with anti-EZH2 antibody (BD Biosciences) and protein A Sepharose beads (GE Health Care) overnight at 4° C. After washing with MLB buffer, precipitated proteins were boiled in 1× Laemmli sample buffer and then separated with SDS-PAGE. The ubiquitination levels of EZH2 were recognized by using anti-Ubiquitn monoclonal antibody.

The nature of series [3]: In vivo pharmacokinetic analysis.
The next series has as its system MDA-MB-468 xenograft. Put plainly: MDA-MB-468 breast cancer xenograft animal model. The series is classed as in vivo, Nu/Nu mice. The protocol: MDA-MB-468 cells were used to inoculate Nu/Nu mice. (A, left) Tumor bearing mice were given vehicle (10 μl DMSO, CTL) or YC-1 (30 and 60 mg/kg/day) by ip treatment. (B, right) Tumor bearing mice were given vehicle (normal saline, CTL) or YC-1-succinate (YC-1-S; 20, 40, and 80 mg/kg/day) by oral administration. During treatment period, tumor volume and body weights of mice were measured once per 3 days. Data are expressed as mean of tumor volume (mm^3)±S.E.M. from 6 mice (YC-1 treatment) or 10 mice (YC-1-S treatment). Tumor weights (B) and body weights of mice (C) in control and YC-1/YC-1-S-treated groups were recorded.
Nu/Nu female mice (four weeks old) were from National Laboratory Animal Center, Taipei, Taiwan. Mice were maintained under procedures and guidelines from the Institutional Animal Care and Use of the National Health Research Institutes. MDA-MB-468 breast cancer cells (5×10^6 cells per mouse) were suspended in 0.1 ml of Matrigel solution (50%, v/v, Matrigel in 1×PBS) and inoculated into the mammary fat pads of nude mice. When the tumor masses reached to 100 mm^3, the tumor bearing mice were randomly divided into different groups for different dosage of YC-1 treatments. The mice were given by intraperitoneal injection with YC-1 or oral administration of YC-1-succinate. Tumor size and body weights of mice were measured once per 3 days and tumor volume (mm^3) was calculated as the equation: length×[…]. At the end of experiments, mice were sacrificed and tumor nodules were dissected and weighted. Tumor tissues were subjected to western blot analysis.

For `CCCCCCOC(=O)[C@]1(O)C[C@@H]2O[C@@]1(C)n1c3ccccc3c3c4c(c5c6ccccc6n2c5c31)C(=O)NC4` [KT5720], the “effect of inhibitor on ERK phosphorylation” value in the series with ERK is “did not affect ERK phosphorylation”. Moreover, the “effect of inhibitor on YC-1-induced EZH2 inhibition” value in the series on EZH2 [1] is listed as “significantly reversed”. Also, the “effect of inhibitor on YC-1-induced inhibition of cell viability” value in the series with MDA-MB-468 is on record as “significantly reversed”. In addition, the “effect of inhibitor on YC-1-induced EZH2 ubiquitination” value in the series on EZH2 [2] was “could be blocked”.

Turning to `O=C(O)CCC(=O)OCc1ccc(-c2nn(Cc3ccccc3)c3ccccc23)o1` [YC-1-succinate, succinic acid mono-[5-(1-benzyl-1H-indazol-3-yl)-furan-2-ylmethyl]ester], the “conversion of prodrug into active form” value in series [3] is reported as “quickly converted into its active form”. In the series on MDA-MB-468 xenograft (20, 40, and 80 mg/kg orally), the tumor growth result is recorded as “dose-dependent inhibition”. Further, in the series with MDA-MB-468 xenograft (20, 40, and 80 mg/kg/day oral), the “body weights of mice” value was “not affected” and the tumor weight entry is “dose-dependently reduced tumor weight”.
